# Values of other authors as cited in patent US4101676A, “Diphenylpropylamines to treat depression” (Beecham Group Limited, priority 1973, dated 1978).
# Test system: central nervous system
# Conditions: Barron et al, J. Pharm. Pharmacol., 17, 509 (1965); cited from earlier work
structure (smiles),measurement,value
CN(C)CCC(O)(c1ccccc1)c1ccccc1 [1:1-diphenyl-3-dimethylaminopopan-1-ol],effects on the central nervous system,considerable effects on the central nervous system
same,side effects,"anorexia, diuresis, ataxia and drowsiness"
